Read-outs that look alike come from different tables or passages of the source. Blank lines part the entries; values can stand above or below the molecule they belong to.
Key:
[1] = molecular target: proteasome activity in blood cells (Mus musculus (Mouse), UniProt O55234); assay: In-vivo pharmacodynamics: proteasome activity in blood cells; conditions: ICR mice, oral single dose 2 mg/kg
Protocol: The compound designed in the present invention can be used to treat malignant tumors of the blood system, so the efficacy of the compound was evaluated by detecting the activity of the proteasome in the blood after single administration, and the in-vivo pharmacodynamic study can be carried out by blood sampling at different time points.
1. 8 week-old ICR mice purchased from Shanghai Bikai Laboratory Animal Co., Ltd., were transferred to a barrier system to adapt to the environment for one week.
2. The animals were divided into three groups, including a positive control group (MLN9708) and two experimental groups (IV-9, V-9A), each group having 3 animals.
3. Before administration, 100 μL of blood was sampled from each animal from the orbital venus plexus and used as the blank control, and the proteasome activity measured in blood cells in this sample was taken as 100%. 1 and 24 hrs after administration, blood was sampled from the orbital venus plexus, and the proteasome activity in blood cells was detected. The inhibitory effect of the drug on proteasome activity and recovery of proteasome activity in blood was obtained by comparison with the data at time 0.
4. […]
5. […] A cell lysing solution was added for protein quantification to correct the detected value. […] The dilution was further reacted with the fluorescent peptide substrate to detect the proteasome activity on a microplate reader.

[2] = In-vivo pharmacokinetic evaluation in SD rats; conditions: male SD rats; for AUC(0-t) / MRT last / half-life / bioavailability: rat, plasma; for AUC(0-t) / MRT last / half-life / CL_obs / Vz_obs: 2.0 mg/kg; for bioavailability: oral, p.o. 2.0 mg/kg vs i.v. 2.0 mg/kg, read-out: F (oral bioavailability); for CL_obs / Vz_obs: i.v.
Protocol: Twelve male SD rats weighing 220±20g, were randomly divided into four groups.
Two groups were respectively given IV-9 and V-9A by tail vein injection at doses given in a table below, and before and 10 min, 20 min. 30 min, 1 h, 2 h, 4 h, 8 h, 12 h, 24 h and 36 h after administration, about 0.200 mL of blood was collected from the jugular vein, placed in a test tube containing EDTA-K2, and centrifuged at a high speed (7800×g) for 15 min. The plasma was separated, and stored at −15° C. to −35° C. The pharmacokinetic differences of IV-9 and V-9A administered by intravenous injection were compared.
The other two groups were respectively given IV-9 and V-9A by oral gavage at doses given in a table below, and before and 5 min, 10 min, 20 min, 30 min, 1 h, 2 h, 4 h, 8 h, 12 h, 24 h and 36 h after administration, about 0.200 mL of blood was collected from the jugular vein, placed in a test tube containing EDTA-K2, and centrifuged at a high speed (7800×g) for 15 min. The plasma was separated, and stored at −15° C. to −35° C. The pharmacokinetic differences of IV-9 and V-9A administered by oral gavage were compared.

ARH-77 xenograft tumors = assay: Evaluation in animal model of xenotransplantation (ARH-77 xenograft); format: in vivo, Balb/c nude mice; conditions: oral; for RTV Mean / T/C / TGI (tumor inhibition rate) / TV Mean: three weeks
Protocol: The human multiple myeloma cell line ARH-77 was used to implant tumors under the skin of Balb/enude mice to establish a transplanted tumor model. The specific experimental process is as follows.
1. 4-6 week-old Balb/c nude mice purchased from Shanghai Bikai Laboratory Animal Co., Ltd., were transferred to a barrier system to adapt to the environment for one week.
2. The cells were cultured to the logarithmic growth phase, digested, centrifuged, re-suspended in Matrigel at a density of 1×10^7 cells/ml, and placed on ice for later use. In the barrier system, the tumor cells were inoculated into the axilla of the animal's right forelimb in an amount of 1×10^6 cells per animal, and the inoculation volume for each animal was 100 microliters.
3. The animals were grown and the tumor volume was measured by a vernier caliper. When the average volume was increased to 100-150 mm^3, the animals were randomly divided into three groups including a blank control group, a positive drug group (Compound MLN-9708) and an experimental group […]), each group having 6 animals.
The formula for calculating tumor volume is: Volume(mm3)=0.5×(Length(mm)×Width(mm)2)
4. The compound used was formulated with a 5% R-sulfobutyl cyclodextrin sodium aqueous solution to give an appropriate concentration, ultrasonicated until the solution became clear, and then stored in a refrigerator at 4° C. for later use.
5. The mice were orally administered. The frequency of administration for the positive drug group was twice a week, and the dosage was 5 mg/kg. The mice in the experimental group were administered daily, and the dosage was 1 mg/kg. The administration was continuous for three weeks, and then the mice were sacrificed to end the experiment. During this process, the tumor volume was measured and recorded twice a week. The inhibitory effect of agents on tumor growth was calculated by the GraphPad Prism software.

[3] = molecular target: human erythrocyte 20S proteasome (Homo sapiens (Human), UniProt P28074); assay: Assay of inhibition on proteasome activity (chymotrypsin-like, Suc-LLVY-AMC substrate); format: biochemical
From the text: The proteasome used in the present invention is human erythrocyte 20S proteasome, and the enzyme, fluorescent substrate and test buffer are all purchased from Enzo.

proteasome activity in blood cells, sequence (O55234 60-264): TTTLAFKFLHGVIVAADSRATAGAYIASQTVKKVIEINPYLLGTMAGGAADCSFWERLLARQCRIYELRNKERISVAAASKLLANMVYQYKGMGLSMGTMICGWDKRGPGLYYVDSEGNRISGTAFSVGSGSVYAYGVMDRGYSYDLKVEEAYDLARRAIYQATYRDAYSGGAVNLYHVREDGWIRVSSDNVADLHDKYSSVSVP

inhibitory activity on proteasome in blood cells ([1]; 1 hr after administration, compared with MLN9708 5 mg/kg): even better inhibitory activity
proteasome activity in blood cells recovered, of the activity in the control group ([1]; 24 hrs after administration): 40%
AUC(0-t) ([2]; Sprague-Dawley (SD), iv): 2550 ng·h/mL
MRT last ([2]; Sprague-Dawley (SD), iv): 2.18 h
half-life ([2]; Sprague-Dawley (SD), iv): 3.1 h
bioavailability ([2]; Sprague-Dawley (SD)): 24.9%
AUC(0-t) ([2]; Sprague-Dawley (SD), po): 634 ng·h/mL
MRT last ([2]; Sprague-Dawley (SD), po): 3.37 h
half-life ([2]; Sprague-Dawley (SD), po): 2.88 h
CL_obs [2]: 11.2 mL/min/kg
Vz_obs [2]: 3.01 L/kg
IC50 [3]: 5.69 nM
Compound: CSC[C@H](NC(=O)c1cc(Cl)ccc1Cl)C(=O)N[C@@H](CC(C)C)B1OCCNCCO1 [Compound V-9A, (R)-diethanolamine N-(2,5-dichlorobenzoyl)-3-methylmercaptopropionamido-D-leucine borate]
TW Mean (Day 21) (ARH-77 xenograft tumors; 1 mg/kg daily): 0.65 g
RTV Mean (ARH-77 xenograft tumors; 1 mg/kg daily): 3.72
T/C (ARH-77 xenograft tumors; 1 mg/kg daily): 24.02%
TGI (tumor inhibition rate) (ARH-77 xenograft tumors; 1 mg/kg daily): 63.48%
TV Mean (ARH-77 xenograft tumors; 1 mg/kg daily): 354.78 mm^3

IC50 [3]: 6.6 nM
Compound: CSC[C@H](NC(=O)c1cc(Cl)ccc1Cl)C(=O)N[C@@H](CC(C)C)B1OC(=O)CC(CC(=O)O)(C(=O)O)O1 (stereo partly drawn) [Compound V-9B, (R)-N-(2,5-dichlorobenzoyl)-3-methylmercaptopropionamido-D-leucine borate citratte]

CL_obs [2]: 16.4 mL/min/kg
Vz_obs [2]: 2.914 L/kg
AUC(0-t) ([2]; iv): 1890 ng·h/mL
MRT last ([2]; iv): 1.55 h
half-life ([2]; iv): 2.08 h
bioavailability [2]: 11%
AUC(0-t) ([2]; po): 208 ng·h/mL
MRT last ([2]; po): 2.35 h
half-life ([2]; po): 2.14 h
Compound: CSC[C@H](NC(=O)c1cc(Cl)ccc1Cl)C(=O)N[C@@H](CC(C)C)B(O)O [IV-9]

Compound: CC(C)C[C@H](NC(=O)CNC(=O)c1cc(Cl)ccc1Cl)B1OC(=O)CC(CC(=O)O)(C(=O)O)O1 (stereo partly drawn) [MLN9708, reference compound]
TW Mean (Day 21) (ARH-77 xenograft tumors; 5 mg/kg twice a week): 1.33 g
RTV Mean (ARH-77 xenograft tumors; 5 mg/kg twice a week): 9.13
T/C (ARH-77 xenograft tumors; 5 mg/kg twice a week): 58.94%
TGI (tumor inhibition rate) (ARH-77 xenograft tumors; 5 mg/kg twice a week): 25.28%
TV Mean (ARH-77 xenograft tumors; 5 mg/kg twice a week): 1042.71 mm^3
TGI (tumor inhibition rate) (ARH-77 xenograft tumors; 5 mg/kg twice a week, listed as MLN-9708): 25.28%

— patent publication US11542283B2, “Synthesis of peptide borate ester compound and use thereof” (JIANGSU CHIA TAI FENGHAI PHARMACEUTICAL CO., LTD., priority 2018, dated 2023)
